Entries after “also recorded” stand apart in the source; their conditions may differ.
How the values were obtained:
HepG2 = experiment: cell viability; type: cell-based, human; conditions: 5 μM
FOCUS cells = experiment: invasion assay using matrigel coated membrane; type: cell-based, human; conditions: 6 hours, compared to DMSO control
Description: The β-hydroxylase activity is required for ASPH to mediate its effects on cell motility. Directional motility was measured using Boyden chamber-type culture inserts equipped with porous membranes. FOCUS cells were pretreated with 5 μM of MO-1-1100 and MO-1-500 β-hydroxylase inhibitor for 24 hours, and then placed into the upper chamber. Migration was allowed to proceed for 30 min. ATPLite was used to quantify viable cell density. The cells in the upper well and upper surface of membrane reflects the number of non-migrating cells, luminescence measured at the bottom surface of the membrane reflects the number of migrating and non-adherent cells and luminescence measured in the bottom well was reflect migrating and non-adherent cells. […] Cell invasiveness was assessed by invasion assay using matrigel coated membrane, in which cells were allowed to proceed for 6 hours; those found adhered on the bottom surface of membrane were regarded as invading cells.

FOCUS = experiment: cell viability; type: cell-based, human; conditions: 5 μM
Description: (§1) A MTT assay was performed to evaluate the effect of MO-1-1100 on cell proliferation and viability. MTT is reduced to purple formazan in living cells. FOCUS cells were used as a high ASPH expressing human HCC cell line. […] The MTT assay measures cellular metabolic activity via NAD(P)H-dependent cellular oxidoreductase enzymes. […] In order to evaluate the effect of long-term exposure of MO-1-1100, the colony formation assay (an assay of malignant potential and phenotype) in which cells were treated with inhibitor for 3 weeks was performed.

Huh7 = experiment: cell viability; type: cell-based, human; conditions: 5 μM
ASPH = biological target: T1, ASPH (Homo sapiens, UniProt Q12797); experiment: high throughput 14CO2 capture enzymatic assay for ASPH β-hydroxylase activity (ASPH mAb capture from lysates of treated FOCUS cells); type: biochemical; set-up: endogenous in cells; host or cells: FOCUS cells (human hepatocellular carcinoma line)
T1 sequence (Q12797 1-758): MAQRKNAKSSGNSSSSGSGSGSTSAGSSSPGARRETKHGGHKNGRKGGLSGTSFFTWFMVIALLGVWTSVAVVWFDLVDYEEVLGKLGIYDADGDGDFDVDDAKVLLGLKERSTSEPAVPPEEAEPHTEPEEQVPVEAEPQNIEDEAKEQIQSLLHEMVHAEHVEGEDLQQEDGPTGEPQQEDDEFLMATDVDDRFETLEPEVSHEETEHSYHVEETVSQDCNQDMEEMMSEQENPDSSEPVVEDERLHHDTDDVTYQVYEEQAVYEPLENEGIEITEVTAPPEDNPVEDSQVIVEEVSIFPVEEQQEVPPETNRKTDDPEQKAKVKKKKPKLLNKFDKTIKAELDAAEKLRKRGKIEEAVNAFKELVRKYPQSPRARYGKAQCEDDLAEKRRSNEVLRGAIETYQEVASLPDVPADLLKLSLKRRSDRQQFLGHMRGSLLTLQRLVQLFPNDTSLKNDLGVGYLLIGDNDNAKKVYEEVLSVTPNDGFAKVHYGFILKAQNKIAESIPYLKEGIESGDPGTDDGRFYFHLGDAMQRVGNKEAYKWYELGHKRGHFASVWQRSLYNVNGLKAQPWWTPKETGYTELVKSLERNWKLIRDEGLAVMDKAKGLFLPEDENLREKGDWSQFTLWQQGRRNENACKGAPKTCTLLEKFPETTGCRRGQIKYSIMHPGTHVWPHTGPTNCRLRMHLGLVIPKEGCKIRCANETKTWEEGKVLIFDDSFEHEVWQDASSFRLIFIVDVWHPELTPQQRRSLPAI
Description: In yet another aspect, the disclosure provides a method determining ASPH activity by contacting an EGF-like domain peptide with a detectably-labeled α-ketoglutarate and ASPH enzyme and measuring β-hydroxylase activity. In one embodiment, said α-ketoglutarate is ^14C-labelled, and wherein β-hydroxylase activity is measured by detecting liberated ^14CO2. In one embodiment, said liberated ^14CO2 is captured on a filter and radioactivity quantified. […] In one embodiment, said EGF-like domain comprises the amino acid sequence of […] (SEQ ID NO:1). In one embodiment, said EGF-like domain peptide comprises the consensus sequence of CDXXXCXXKXGNGXCDXXCNNAACXXDGXDC (SEQ ID NO: 2).
FIG. 3A is a diagram of the biochemical reaction catalyzed by ASPH derived from PC cell lysates. FIG. 3B is a cartoon illustrating the read-out to quantify ASPH activity in PC cells and tumors. FIG. 3C is an image of membrane was obtained by a phosphor-imager after a 16 hour exposure of the trapping filter to a phospho-screen. FIG. 3D is a bar graph showing intensities were calculated by Image J software and compared to a DMSO control. Vertical bars represent standard deviation. These figures show methods of measurement and data relating to ASPH catalytic activity.
EGF and EGF-like domains are well known in the art and generally include six cysteine residues which have been shown (in EGF) to be involved in disulfide bonds. The main structure is a two-stranded beta-sheet followed by a loop to a C-terminal short two-stranded sheet. Subdomains between the conserved cysteines vary in length. Examples include those described in Davis, C G, 1990, New Biol. 2(5):410-9; Blomquist et al., 1984, Proc Natl Acad Sci USA. 81(23):7363-7; Hommel et al., […], J Mol Biol. 227(1):271-82; Doolittle et al., 1984, Nature. 307(5951):558-60; Appella et al., 1988, FEBS Lett. 231(1):1-4; Sorkin A., 2001, Biochem Soc Trans. August; 29(Pt 4):480-4; each of which is hereby incorporated by reference). FIGS. 3A-C represents the strategy for development and characterization of the performance of an assay to measure ASPH enzymatic activity. FIG. 3A describes the biochemical reaction catalyzed by ASPH. FIG. 3B depicts the read-out of the assay. Protein lysates were extracted from FOCUS cells (high level of ASPH cell surface expression) treated with 1-10 μM of each parent compound for 24 hours. The lysates were added into 96 well-plates coated with ASPH monoclonal antibodies (mAbs) to add an antigen specific (ASPH) capture step to the assay design. After incubation and washing, only ASPH is captured on each well. The reaction is carried out with 60 μM of an EGF domain containing 39AA peptide, 100 μM FeCl2 and 40 μM ^14C labeled α-ketoglutarate were added into each well. The ^14CO2 was captured on a glass fiber membrane soaked in Ca(OH)2. […] The compound was further characterized for clinical use as an anti-tumor agent for PC and HCC and other ASPH-expressing tumors.

NIH 3T3 cells = experiment: cell viability; type: cell-based, mouse; conditions: 5 μM, NIH 3T3 cells with no expression of ASPH
FOCUS HCC cells = experiment: colony formation assay; type: cell-based, human; conditions: 5 μM
Description: as §1

`NC1=C(OS(=O)(=O)Cc2ccccc2)C(=O)C(c2ccc(Cl)cc2)O1` (racemic) [MO-1-1100] was tested, and the “cell viability, inhibition rate” value (HepG2) was 59%, the invasiveness (FOCUS cells) was “significantly reduced; also recorded: significantly inhibited” and the “cell viability, inhibition rate” value (FOCUS) was 37.9%. The “cell viability, inhibition rate” value (Huh7) was 50%, the “identified as hits (screening for inhibition of β-hydroxylase activity)” value (ASPH) was “identified as hits” and the β-hydroxylase activity (ASPH; 1 μM) was “substantially inhibits”. The “ASPH enzymatic inhibitory activity (β-hydroxylase)” value (ASPH; concentration not given) was “inhibit”, the decreased cell viability (NIH 3T3 cells) was “not” and the colony formation (FOCUS HCC cells) was “reduced colony formation; also recorded: strikingly inhibited”. The “colony formation, inhibition rate” value (FOCUS HCC cells; 3 weeks) was 36.8%.

Source: patent publication US10106532B2, “Inhibitors of beta-hydroxylase for treatment of cancer” (MIDWESTERN UNIVERSITY, priority 2012, dated 2018)
